Assay results published in patent publication US12077503B2, “Substituted cyclic amides and their use as herbicides” (FMC CORPORATION, priority 2015, dated 2024).
Where two headings read alike, the source gives them in different places.

Key:
Test in all cases: Test A preemergence
Assay type in all cases: in vivo
Kochia (Kochia scoparia) = details: Bassia scoparia, pre-emergence, 240 h; for pest or weed control at 125 g/ha: 125 g ai/ha; for pest or weed control at 500 g/ha: 500 g ai/ha
Outline: (§1)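 Preemergence directed soil spray on seeded pots, or postemergence application to plants 2–10 cm, one- to two-leaf. Solvent mixture non-phytotoxic, with surfactant. Scored ~10 d later, visually, 0–100 vs untreated.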

[1] = tested on: barnyardgrass (Echinochloa crus-galli); details: Echinochloa crus-galli, pre-emergence, 240 h; for pest or weed control at 125 g/ha: 125 g ai/ha; for pest or weed control at 500 g/ha: 500 g ai/ha
Outline: as §1

[2] = tested on: giant foxtail (Setaria faberii); details: Setaria faberi, pre-emergence, 240 h; for pest or weed control at 125 g/ha: 125 g ai/ha; for pest or weed control at 500 g/ha: 500 g ai/ha
Outline: as §1

[3] = tested on: pigweed (Amaranthus retroflexus); details: Amaranthus retroflexus, pre-emergence, 240 h; for pest or weed control at 125 g/ha: 125 g ai/ha; for pest or weed control at 500 g/ha: 500 g ai/ha
[4] = tested on: ragweed (common ragweed, Ambrosia elatior); details: Ambrosia artemisiifolia, pre-emergence, 240 h; for pest or weed control at 500 g/ha: 500 g ai/ha; for pest or weed control at 125 g/ha: 125 g ai/ha
Outline: as §1

[5] = tested on: ryegrass, Italian (Italian ryegrass, Lolium multiflorum); details: Lolium multiflorum, pre-emergence, 240 h; for pest or weed control at 125 g/ha: 125 g ai/ha; for pest or weed control at 500 g/ha: 500 g ai/ha
Outline: as §1

[6] = preemergence, visual injury rating, 0 to 100 scale where 0 is no effect and 100 is complete control, approximately 10 d, read-out: Kochia plant response rating
[7] = preemergence, 0 to 100 scale where 0 is no effect and 100 is complete control, read-out: Kochia plant response rating
[8] = preemergence, visual injury rating, 0 to 100 scale where 0 is no effect and 100 is complete control, approximately 10 d, read-out: Barnyardgrass plant response rating
[9] = preemergence, 0 to 100 scale where 0 is no effect and 100 is complete control, read-out: Barnyardgrass plant response rating
[10] = preemergence, visual injury rating, 0 to 100 scale where 0 is no effect and 100 is complete control, approximately 10 d, read-out: Foxtail, Giant plant response rating
[11] = preemergence, 0 to 100 scale where 0 is no effect and 100 is complete control, read-out: Foxtail, Giant plant response rating
[12] = preemergence, visual injury rating, 0 to 100 scale where 0 is no effect and 100 is complete control, approximately 10 d, read-out: Pigweed plant response rating
[13] = preemergence, 0 to 100 scale where 0 is no effect and 100 is complete control, read-out: Pigweed plant response rating
[14] = preemergence, 0 to 100 scale where 0 is no effect and 100 is complete control, read-out: Ragweed plant response rating
[15] = preemergence, visual injury rating, 0 to 100 scale where 0 is no effect and 100 is complete control, approximately 10 d, read-out: Ryegrass, Italian plant response rating
[16] = preemergence, 0 to 100 scale where 0 is no effect and 100 is complete control, read-out: Ryegrass, Italian plant response rating
[17] = preemergence, visual injury rating, 0 to 100 scale where 0 is no effect and 100 is complete control, approximately 10 d, read-out: Ragweed plant response rating
[18] = Preemergence, 0 to 100 scale (0 no effect, 100 complete control), read-out: Plant response rating, Kochia
[19] = Preemergence, 0 to 100 scale (0 no effect, 100 complete control), read-out: Plant response rating, Barnyardgrass
[20] = Preemergence, 0 to 100 scale (0 no effect, 100 complete control), read-out: Plant response rating, Foxtail, Giant
[21] = Preemergence, 0 to 100 scale (0 no effect, 100 complete control), read-out: Plant response rating, Pigweed
[22] = Preemergence, 0 to 100 scale (0 no effect, 100 complete control), read-out: Plant response rating, Ryegrass, Italian
[23] = Preemergence, 0 to 100 scale (0 no effect, 100 complete control), read-out: Plant response rating, Ragweed

Row | Compound | pest or weed control at 125 g/ha (Kochia (Kochia scoparia); [6]) [%] | pest or weed control at 500 g/ha (Kochia (Kochia scoparia); [7]) [%] | pest or weed control at 125 g/ha [1, 8] [%] | pest or weed control at 500 g/ha [1, 9] [%] | pest or weed control at 125 g/ha [2, 10] [%] | pest or weed control at 500 g/ha [2, 11] [%] | pest or weed control at 125 g/ha [3, 12] [%] | pest or weed control at 500 g/ha [3, 13] [%] | pest or weed control at 500 g/ha [4, 14] [%] | pest or weed control at 125 g/ha [5, 15] [%] | pest or weed control at 500 g/ha [5, 16] [%] | pest or weed control at 125 g/ha [4, 17] [%] | pest or weed control at 125 g/ha (Kochia (Kochia scoparia); [18]) [%] | pest or weed control at 125 g/ha [1, 19] [%] | pest or weed control at 125 g/ha [2, 20] [%] | pest or weed control at 125 g/ha [3, 21] [%] | pest or weed control at 125 g/ha [5, 22] [%] | pest or weed control at 125 g/ha [4, 23] [%]
1 | Cc1cc([C@H]2CNC(=O)[C@@H]2C(=O)Nc2ccccc2C(F)(F)F)ccc1Cl [Compound 1245] | 0 | 20 | 50 | 80 | 80 | 90 | 0 | 0 | 20 | 0 | 60 |  |  |  |  |  |  | 
2 | Cc1ccc([C@H]2CNC(=O)[C@@H]2C(=O)Nc2c(F)cccc2F)cc1C [Compound 1247] | 0 | 30 | 70 | 90 | 20 | 80 | 0 | 0 | 0 | 0 | 20 | 0 |  |  |  |  |  | 
3 | CSc1ccccc1NC(=O)[C@H]1C(=O)N(C)C[C@@H]1c1cccc(C(F)(F)F)c1 [Compound 1249] |  | 90 | 100 | 100 | 100 | 100 | 80 | 90 | 70 | 30 | 100 | 30 |  |  |  |  |  | 
4 | CSc1ccccc1NC(=O)[C@H]1C(=O)N(C)C[C@@H]1c1ccc2c(c1)OC(F)(F)O2 [Compound 1251] | 80 | 90 | 100 | 100 | 100 | 100 | 90 | 90 | 80 | 50 | 60 | 70 |  |  |  |  |  | 
5 | Cc1c(F)cccc1NC(=O)[C@H]1C(=O)N(C)C[C@@H]1c1ccc2c(c1)OC(F)(F)O2 [Compound 1252] | 80 | 80 | 100 | 100 | 90 | 100 | 70 | 90 | 70 | 80 | 90 | 60 |  |  |  |  |  | 
6 | CN1C[C@H](c2ccc(F)c(C#N)c2)[C@@H](C(=O)Nc2ccccc2F)C1=O [Compound 1254] | 20 | 70 | 100 | 100 | 90 | 100 | 20 | 70 | 30 | 0 | 40 | 0 |  |  |  |  |  | 
7 | CSc1ccccc1NC(=O)[C@H]1C(=O)NC[C@@H]1c1ccc2c(c1)OCO2 [Compound 1257] | 0 | 0 | 0 | 0 | 0 | 0 | 0 | 0 | 0 | 0 | 0 | 0 |  |  |  |  |  | 
8 | COc1cc([C@H]2CN(C)C(=O)[C@@H]2C(=O)Nc2cccc(F)c2F)ccc1F [Compound 1299] | 70 | 70 | 90 | 90 | 90 | 90 | 20 | 60 | 70 | 30 | 70 | 30 |  |  |  |  |  | 
9 | COc1cc([C@H]2CN(C)C(=O)[C@@H]2C(=O)Nc2ccccc2SC)ccc1F [Compound 1301] | 30 | 60 | 30 | 90 | 90 | 90 | 0 | 30 | 20 | 0 | 0 | 0 |  |  |  |  |  | 
10 | Cc1c(F)cccc1NC(=O)[C@H]1C(=O)NC[C@@H]1c1cccc2c1OC(F)(F)O2 [Compound 1305] | 0 | 0 | 70 | 90 | 90 | 90 | 0 | 0 | 0 | 0 | 0 | 0 |  |  |  |  |  | 
11 | Cc1cc([C@H]2CN(C)C(=O)[C@@H]2C(=O)Nc2cccc(F)c2C)ccc1F [Compound 1311] |  | 100 |  | 100 |  | 100 |  | 20 | 90 |  |  |  | 70 | 100 | 100 | 0 | 70 | 
12 | CN1C[C@H](c2cccc(C(C)(F)F)c2)[C@@H](C(=O)Nc2cccc(F)c2F)C1=O [Compound 1316] |  | 80 |  | 90 |  | 90 |  | 80 | 70 |  |  |  | 80 | 90 | 90 | 70 | 70 | 0
13 | CN1C[C@H](c2cccc(C(C)(F)F)c2)[C@@H](C(=O)Nc2ccccc2F)C1=O [Compound 1317] |  | 80 |  | 90 |  | 100 |  | 60 | 40 |  |  |  | 60 | 90 | 90 | 0 | 20 | 0
